# According to patent publication US20220000762A1, “COMPOSITIONS FOR TREATING OXIDATIVE STRESS-ASSOCIATED SKIN DISEASES AND SKIN AGEING AND DIAGNOSIS OF OXIDATIVE STRESS-ASSOCIATED SKIN DISEASES” (priority 2019, published 2022):
# Experiment: ABTS radical cation assay
# Assay type: biochemical
# Details: RoxP peptides, ABTS assay (Example 12), increased with concentration
# Method: FIG. 4: RoxP antioxidant activity under adverse conditions. The ability of RoxP to reduce ABTS radical cations, denoted by a decrease in absorbance at 734 nm, was tested in multiple settings. Different concentrations of recombinant RoxP (rRoxP) (0.2-3.2 μM) in sodium phosphate buffer (20 mM, pH 7.4) (A), rRoxP (2.7 μM) incubated with salt solutions (B), pre-heated rRoxP (2.7 μM) incubated for 20 min in temperatures ranging from RT to 98° C. and allowed to cool down to ambient temperature prior to activity measurements (C), or rRoxP (2 μM) stored at room temperature for up to 2 weeks (D) were added to a solution of pre-formed ABTS radicals and the absorbance recorded after 30 sec.
# The reduction of pre-formed ABTS radical cations in the presence of RoxP was analysed using a spectrophotometric assay previously described by Re et al. (1999 Free Radic Biol Med 26:1231-1237). 2,2′-azinobis(3-ethylbenzothiazoline-6-sulfonic acid) diammonium salt (ABTS) (Sigma-Aldrich) was initially dissolved in ddH2O to a concentration of […]. Potassium persulfate (Merck KGaA, Darmstadt, Germany) was subsequently added to a final concentration of 2.45 mM and the resulting solution kept dark and incubated overnight at RT. Formed ABTS radicals were diluted with PBS (pH 7.4) until reaching an absorbance of approximately 0.7 at 734 nm. Antioxidants (1.7 μM) were added (1:9 v/v) and the absorbance spectrum 500 to 900 nm recorded after 30 sec.
row,Sequence,antioxidant activity
1,RTLSYCAYPHYVN (Cutibacterium acnes) [RoxP-Peptide 2],display antioxidant activity
2,VRADGYQESMVTRVLDDK (Cutibacterium acnes) [RoxP-Peptide 1],display antioxidant activity
